Results: PubChem BioAssay (NCI)
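Protocol summary: plate cells (96-well), add compound at 5 concentrations, incubate 48 h, interpolate endpoints linearly. At the TGI there is no net growth.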

What was measured:
Assay in all cases: NCI-60 cell line screen, 48 h
K-562 leukemia = system: K-562 leukemia
HS 578T breast = system: HS 578T breast
HCT-15 colon = system: HCT-15 colon
MDA-MB-435 = system: MDA-MB-435
MDA-N = system: MDA-N
HOP-62 NSCLC = system: HOP-62 NSCLC
MDA-MB-231 breast = system: MDA-MB-231 breast
U251 CNS = system: U251 CNS
OVCAR-5 ovarian = system: OVCAR-5 ovarian
CAKI-1 renal = system: CAKI-1 renal
SF-539 CNS = system: SF-539 CNS
UO-31 renal = system: UO-31 renal
HCT-116 colon = system: HCT-116 colon
SK-MEL-5 melanoma = system: SK-MEL-5 melanoma
COLO 205 colon = system: COLO 205 colon
DU-145 prostate = system: DU-145 prostate
LOX IMVI melanoma = system: LOX IMVI melanoma
SR leukemia = system: SR leukemia
HT29 colon = system: HT29 colon
PC-3 prostate = system: PC-3 prostate
SK-MEL-28 melanoma = system: SK-MEL-28 melanoma
MALME-3M melanoma = system: MALME-3M melanoma
SN12C renal = system: SN12C renal
NCI-H226 lung = system: NCI-H226 lung
SW-620 colon = system: SW-620 colon
T-47D breast = system: T-47D breast
HL-60(TB) leukemia = system: HL-60(TB) leukemia
NCI/ADR-RES ovarian = system: NCI/ADR-RES ovarian
786-0 renal = system: 786-0 renal
A498 renal = system: A498 renal
BT-549 breast = system: BT-549 breast
MOLT-4 leukemia = system: MOLT-4 leukemia
OVCAR-4 ovarian = system: OVCAR-4 ovarian
RPMI-8226 leukemia = system: RPMI-8226 leukemia
MCF7 breast = system: MCF7 breast
HOP-92 NSCLC = system: HOP-92 NSCLC
CCRF-CEM leukemia = system: CCRF-CEM leukemia
UACC-62 melanoma = system: UACC-62 melanoma
UACC-257 melanoma = system: UACC-257 melanoma
SNB-75 CNS = system: SNB-75 CNS
KM12 colon = system: KM12 colon
SK-MEL-2 melanoma = system: SK-MEL-2 melanoma
NCI-H522 lung = system: NCI-H522 lung
M14 melanoma = system: M14 melanoma
TK-10 renal = system: TK-10 renal
NCI-H23 lung = system: NCI-H23 lung
IGROV1 ovarian = system: IGROV1 ovarian
EKVX NSCLC = system: EKVX NSCLC
SF-268 CNS = system: SF-268 CNS
OVCAR-3 ovarian = system: OVCAR-3 ovarian
OVCAR-8 ovarian = system: OVCAR-8 ovarian
A549 NSCLC = system: A549 NSCLC
SF-295 CNS = system: SF-295 CNS
SK-OV-3 ovarian = system: SK-OV-3 ovarian
SNB-19 CNS = system: SNB-19 CNS
ACHN renal = system: ACHN renal
NCI-H460 lung = system: NCI-H460 lung
RXF 393 renal = system: RXF 393 renal

## C#CCn1c2c(c3ccccc3c1=O)C(=O)c1ccccc1-2
K-562 leukemia
  TGI: > 100 µM
HS 578T breast
  TGI: 34.8 µM
HCT-15 colon
  TGI: > 100 µM
MDA-MB-435
  TGI: > 100 µM
MDA-N
  TGI: > 100 µM
HOP-62 NSCLC
  TGI: 24.1 µM
MDA-MB-231 breast
  TGI: 39.1 µM
U251 CNS
  TGI: 42.5 µM
OVCAR-5 ovarian
  TGI: > 100 µM
CAKI-1 renal
  TGI: 24.3 µM
SF-539 CNS
  TGI: 24.2 µM
UO-31 renal
  TGI: 13.9 µM
HCT-116 colon
  TGI: > 100 µM
SK-MEL-5 melanoma
  TGI: 22.1 µM
COLO 205 colon
  TGI: > 100 µM
DU-145 prostate
  TGI: 44.4 µM
LOX IMVI melanoma
  TGI: > 100 µM
SR leukemia
  TGI: > 100 µM
HT29 colon
  TGI: 65.9 µM
PC-3 prostate
  TGI: > 100 µM
SK-MEL-28 melanoma
  TGI: > 100 µM
MALME-3M melanoma
  TGI: > 100 µM
SN12C renal
  TGI: 81.6 µM
NCI-H226 lung
  TGI: 79.3 µM
SW-620 colon
  TGI: > 100 µM
T-47D breast
  TGI: 69.4 µM
HL-60(TB) leukemia
  TGI: 10.2 µM
NCI/ADR-RES ovarian
  TGI: 88.7 µM
786-0 renal
  TGI: 32 µM
A498 renal
  TGI: 82.9 µM
BT-549 breast
  TGI: > 100 µM
MOLT-4 leukemia
  TGI: > 100 µM
OVCAR-4 ovarian
  TGI: 33.1 µM
RPMI-8226 leukemia
  TGI: > 100 µM
MCF7 breast
  TGI: 27.7 µM
HOP-92 NSCLC
  TGI: > 100 µM
CCRF-CEM leukemia
  TGI: > 100 µM
UACC-62 melanoma
  TGI: 57.1 µM
UACC-257 melanoma
  TGI: > 100 µM
SNB-75 CNS
  TGI: 27.4 µM
KM12 colon
  TGI: > 100 µM
SK-MEL-2 melanoma
  TGI: > 100 µM
NCI-H522 lung
  TGI: 42.2 µM
M14 melanoma
  TGI: > 100 µM
TK-10 renal
  TGI: 61.6 µM
NCI-H23 lung
  TGI: 40.4 µM
IGROV1 ovarian
  TGI: 80.7 µM
EKVX NSCLC
  TGI: 58.8 µM
SF-268 CNS
  TGI: 34.1 µM
OVCAR-3 ovarian
  TGI: 29.6 µM
OVCAR-8 ovarian
  TGI: 82.3 µM
A549 NSCLC
  TGI: 57.3 µM
SF-295 CNS
  TGI: 94.3 µM
SK-OV-3 ovarian
  TGI: 73.1 µM

## COC(=O)C1OC(SCCN)C(O)C(O)C1O (stereo unspecified)
K-562 leukemia
  TGI: > 100 µM
HS 578T breast
  TGI: > 100 µM
HCT-15 colon
  TGI: > 100 µM
MDA-MB-435
  TGI: > 100 µM
MDA-N
  TGI: > 100 µM
HOP-62 NSCLC
  TGI: > 100 µM
SNB-19 CNS
  TGI: > 100 µM
MDA-MB-231 breast
  TGI: > 100 µM
U251 CNS
  TGI: > 100 µM
OVCAR-5 ovarian
  TGI: > 100 µM
CAKI-1 renal
  TGI: > 100 µM
SF-539 CNS
  TGI: > 100 µM
HCT-116 colon
  TGI: > 100 µM
SK-MEL-5 melanoma
  TGI: > 100 µM
COLO 205 colon
  TGI: > 100 µM
DU-145 prostate
  TGI: > 100 µM
LOX IMVI melanoma
  TGI: > 100 µM
SR leukemia
  TGI: > 100 µM
HT29 colon
  TGI: > 100 µM
ACHN renal
  TGI: > 100 µM
PC-3 prostate
  TGI: > 100 µM
SK-MEL-28 melanoma
  TGI: > 100 µM
MALME-3M melanoma
  TGI: > 100 µM
SN12C renal
  TGI: > 100 µM
NCI-H460 lung
  TGI: > 100 µM
NCI-H226 lung
  TGI: > 100 µM
SW-620 colon
  TGI: > 100 µM
T-47D breast
  TGI: > 100 µM
HL-60(TB) leukemia
  TGI: > 100 µM
NCI/ADR-RES ovarian
  TGI: > 100 µM
786-0 renal
  TGI: > 100 µM
A498 renal
  TGI: > 100 µM
BT-549 breast
  TGI: > 100 µM
MOLT-4 leukemia
  TGI: > 100 µM
OVCAR-4 ovarian
  TGI: > 100 µM
RPMI-8226 leukemia
  TGI: > 100 µM
MCF7 breast
  TGI: > 100 µM
HOP-92 NSCLC
  TGI: > 100 µM
CCRF-CEM leukemia
  TGI: > 100 µM
UACC-62 melanoma
  TGI: > 100 µM
UACC-257 melanoma
  TGI: > 100 µM
SNB-75 CNS
  TGI: > 100 µM
KM12 colon
  TGI: > 100 µM
SK-MEL-2 melanoma
  TGI: > 100 µM
NCI-H522 lung
  TGI: > 100 µM
M14 melanoma
  TGI: > 100 µM
TK-10 renal
  TGI: > 100 µM
NCI-H23 lung
  TGI: > 100 µM
IGROV1 ovarian
  TGI: > 100 µM
EKVX NSCLC
  TGI: > 100 µM
SF-268 CNS
  TGI: > 100 µM
OVCAR-3 ovarian
  TGI: > 100 µM
OVCAR-8 ovarian
  TGI: > 100 µM
RXF 393 renal
  TGI: > 100 µM
A549 NSCLC
  TGI: > 100 µM
SF-295 CNS
  TGI: > 100 µM
SK-OV-3 ovarian
  TGI: > 100 µM
